Reference: patent EP0357092B1, “Preparation of diacetoxybenzylidene diacetates” (KUREHA KAGAKU KOGYO KABUSHIKI KAISHA, priority 1983, dated 1985)
Like-named read-outs stand apart in the source and are kept apart here.

What was measured:
[1] = tested on: migration of polymorphonuclear leukocytes (PMN) to the site of inflammation; assay: Suppression of migration of polymorphonuclear leukocytes, carboxymethylcellulose-pouch method; format: in vivo, male Donryu rats; settings: rats, PMN counted 6 hours after injection into pouch
Description: While using groups of male Donryu rats (six rats per group) and following the carboxymethylcellulose-pouch method (refer to Ishikawa et al. […] ZASSHI (Journal of the Pharmaceutical Society of Japan), 88, 1472, 1968), the extent of inhibition of migration of polymorphonuclear leukocytes to the site of inflammation by present substance No.1 was examined. The specimen (present substance No.1) was dispersed in an aqueous 0.2 % solution of carboxymethylcellulose and the dispersion was administered to each rat at a predetermined dose rate, and only the aqueous 0.2 % solution of carboxymethylcellulose was administered to each rat of control group. The test was carried out by injecting the aqueous 0.2 % solution of carboxymethyl-cellulose into the pouch formed in the body of the rat and after 6 hours of the injection, the number of polymorphonuclear leukocytes in the exudate into the pouch was counted. […]

[2] = tested on: proliferation of granuloma; assay: Suppression of proliferation of granuloma, filter paper implant method of Fujimura; format: in vivo, male Donryu rats; settings: once a day for 10 days, rats, dried granuloma weighed after 11 days
Description: While using groups of male Donryu rats in the fifth week after birth (5 rats per group), the activity of present substance No.1 in suppressing the proliferation of granuloma was tested by the method of Fujimura (refer to OYOYAKURI (Pharmacometrics), 19 (3), 329, 1980).
After soaking sheets of filter paper of 13 mm in diameter and 28 mg in weight into an aqueous 2% solution of carboxymethylcellulose containing both dihydroxystreptomycin and penicillin, each of 10⁶ unit at the respective concentration of 0.1 mg/ml, each of the thus treated sheets was buried subcutaneously into the back of each rat under anaesthesia by ether. […] After 11 days of the treatment, granuloma formed in the rat was removed, dried for 24 hours at 70°C and weighed.

[3] = Acute mammalian toxicity (oral LD50); settings: mouse, in vivo
Description: After dispersing present substance No.1 in an aqueous 0.2 % solution of carboxymethylcellulose, the aqueous dispersion was orally administered to each of male Jcl-ICR mice. As a result, LD₅₀ (acute, oral) of the tested substance was larger than 4,000 mg/kg.

Structure (SMILES)	Rate of suppression of migration of PMN (%) ([1]; dose rate 5 mg/kg)	Granuloma Rate of Suppression (%) ([2]; dose rate 3 mg/kg/day oral)	LD50 ([3]; oral, male Jcl-ICR mice, dispersed in aqueous 0.2 % carboxymethylcellulose, read-out: LD₅₀ (acute, oral)) [mg/kg]	Rate of suppression of migration of PMN (%) ([1]; dose rate 50 mg/kg)	Granuloma Rate of Suppression (%) ([2]; dose rate 50 mg/kg/day oral)	LD50 ([3]; male, Jcl-ICR, po) [mg/kg]	Rate of suppression of migration of PMN (%) ([1]; dose rate 10 mg/kg)	Granuloma Rate of Suppression (%) ([2]; dose rate 5 mg/kg/day oral)	Granuloma Rate of Suppression (%) ([2]; dose rate 10 mg/kg/day oral)
COc1ccc2c(c1)c(CC(=O)O)c(C)n2C(=O)c1ccc(Cl)cc1 [Indomethacin, reference compound]	35.7	–	–	–	–	–	–	–	–
C[C@]12C=CC(=O)C=C1CC[C@@H]1[C@@H]2[C@@H](O)C[C@@]2(C)[C@H]1CC[C@]2(O)C(=O)CO [Prednisolone, reference compound]	37.5	42.2	–	–	–	–	–	–	–
O=Cc1ccc(O)c(O)c1 [3,4-dihydroxy-benzaldehyde, 3,4-dihydroxybenzaldehyde, reference compound]	–	–	1500	27.5	35.6	–	–	–	–
CC(=O)Oc1ccc(C(OC(C)=O)OC(C)=O)cc1OC(C)=O [Present Substance No.1, 3,4-diacetoxybenzylidene diacetate]	41.2	–	–	51.9	61.4	> 4000	48.0	42.8	55.3
